# Measured values as given in patent US20180118747A1, “METHOD OF ISOLATING THEACRINE AND COMPOSITION COMPRISING THEACRINE” (ThermoLife International, LLC, priority 2017, published 2018).
# Assay: Effects of ingested theacrine versus fused theacrine as reported by human subjects
# Assay type: in vivo
# Details: oral ingestion
# Protocol: Typically, theacrine's effects in human subjects start after 30 minutes of ingestion and last 6-8 hours.
compound,measurement,setting,value
"Cn1c(=O)c2c(n(C)c1=O)n(C)c(=O)n2C [theacrine, 1,3,7,9-tetramethyluric acid]",start of theacrine's effects after ingestion,,30 min
same,duration of theacrine's effects,same amount of theacrine in both forms,6 to 8 h
same,"""crash"" felt when the theacrine level falls",subject-reported,feels a “crash.”
